Results published in US10259852B2, “Conjugate comprising P21 protein for the treatment of cancer” (ANASTASIS BIOTEC LIMITED, priority 2005, dated 2019).

Key:
ASPC1 = test: Cell translocation experiment; assay type: cell-based, human; settings: incubated 10 and 60 min, various dilutions, 37° C.
Description: (§1) The production of the fusion protein allowed a cell translocation experiment to be performed, to test the ability of the antennapedia-containing fusion protein to translocate across biological membranes. Two cell lines were used in this experiment, ASPC1 and HeLa (ASPC1—human pancreatic adenocarcinoma, HeLa—human cervical adenocarcinoma). The protein was incubated for 10 and 60 min on cells in various dilutions at 37° C. Translocation of the fusion protein was evident in both cell lines, even after only ten minutes of incubation.

HeLa = test: Cell translocation experiment; assay type: cell-based, human; settings: incubated 10 and 60 min, various dilutions, 37° C.
Description: as §1

“P21 protein: P21 tumour suppressor protein expressed alone, without translocation factor; human P21 is SEQ ID NO:1” was tested, and the Translocation across cells (ASPC1) was “did not appear to translocate” and the Translocation across cells (HeLa) was “did not appear to translocate”.
